Laboratory results: US20240101972A1, “METHODS OF […]-[…] PRODUCTION” (priority 2021, published 2024)
Read-outs that look alike come from different tables or passages of the source.

Assays:
[1] = system: Rep with C-terminal degron under the control of TRE3G promoter; test: AAV titer (qPCR) of Rep with C-terminal degron under TRE3G promoter control; format: cell-based
Experimental: (§1) PEI pro transfection reagent (Polyplus), OptiMEM (Gibco) were used. […] These cell pellets were kept at −80 freezer.
(§2) Frozen harvested cells were thawed and sonicated. […] Then DNaseI treatment was performed for 15 minutes.
(§3) In this study a Tet response element containing promoter (TRE3G) is cloned in front of the Rep gene as shown at FIG. 18A. This promoter can be activated in the presence of Tet proteins and doxycycline induction. Rep with C-terminal Degron under Tet Response Element promoter control is shown to be functional for AAV production regulation. Large Rep is under the control of Tet promoter and small Rep expression is provided by p19 promoter (Samples 1-5). […] Shield1 can upregulate small Rep expression (Sample 1 vs Sample 2) and large Rep expression (Sample 3 vs Sample 4). A separate plasmid is used for supplying Tet-On 3G transactivator protein where transactivator protein expression is under the control of ubiquitous CMV promoter (Samples 1-4). The amino acid sequence of the transactivator protein is: […]

[2] = system: Rep with C-terminal FKBP degron; test: rAAV production from Rep-degron constructs, read out by Huh7 transduction and luciferase; format: cell-based, human
Excerpt: Various constructs were designed for the development of mechanism for controllable Rep accumulation and higher rAAV production. Rep transgene was tagged at N-terminus or C-terminus with a destabilization domain (degron) to confer instability and target the translated Rep protein product to proteasome for degradation. The Rep protein degradation can be reversed by addition of the Shield1 ligand. The degron was modified from a human gene encoding FK506-binding protein 12 (“FKBP12”). It was previously shown that F36V modifications of the protein improves its specificity to Shield1 over FK506 (Clackson et al, PNAS 1998). […] The amino acid sequence of the degron that was used in the present example, referred to herein as “FKBP”, having a F36V and an L107P mutation, was:
Production of rAAV: Recombinant AAV were produced by transfection of human embryonic kidney (HEK293) cells grown in 6-well plates. The cells at 70-90% confluency were transfected with 3 μg of total DNA using jetOPTIMUS® DNA (PolyPlus)transfection reagent. The positive control rAAV produced with LK03 Rep/Cap plasmid were produced via triple transfection method. The plasmids were added in 1:1:1 ratio (1 helper: 1 ITR plasmid: 1 rep/cap plasmids). […]
Transduction of cells: Huh7 cells were transduced with equivalent volume of cell lysate or the cell media containing the AAV vectors. […] Transduction efficiency was assessed in biological duplicates or triplicates. Culture media was replaced the following day, and samples were analyzed for transgene expression 48-72 hours after transduction. For detection of Luciferase expression, Huh7 cells were lysed in passive lysis buffer (Promega) and each biological sample was divided and plated to four wells of 96-well luminescence assay plate. Renilla Luciferase levels were determined using the Renilla Luciferase Assay Kit (Promega) and analyzed in a microplate luminometer (Spectramax) fitted with injectors.
Shield1 was added to selected wells (FIG. 2). […] The Huh7 cells were then lysed and luciferase activity was measured for the detection of transgene activity.

[3] = system: FKBP degron tagged Rep proteins; test: AAV titer (qPCR) with FKBP degron tagged Rep; format: cell-based, human
Experimental: as §1, §2
(§4) As depicted in FIGS. 12A-12D “RHM4-1” and “RHM4-1v2” are the plasmids that express both Rep proteins with no degrons and RHM4-1 Cap. In contrast, “p40Cap plasmid” only expresses RHM4-1 Capsid, while “pAAV2 Rep plasmid” expresses Rep proteins from AAV2. The ITR plasmid used in these studies has Gaussia Luciferase as transgene.

[4] = system: FKBP degron tagged Rep proteins; test: Western blot of FKBP degron tagged Rep proteins; format: cell-based, human
Experimental: as §1
(§5) Protein concentrations were measured with BCA kit (Pierce). […] Membranes were scanned with Odyssey (Li-Cor).
as §4

[5] = molecular target: T1, Rep with C-terminal degron under the control of TRE3G promoter (Homo sapiens, UniProt P62942, F37V); test: Western blot of Rep with C-terminal degron under TRE3G promoter control; format: cell-based
T1 construct: AAV Rep protein (fusion partner); expressed in transfected cells; host or cells: Expi293
Experimental: as §1, §5, §3

[6] = system: ecDHFR degron tagged Rep proteins
Experimental: Expi293 cells were seeded 1.4E6 viable cells/mL in Expi293 media the day before transfection. Transfection was performed when the viable cells were between 2E6-3E6 cells/mL. PEI pro transfection reagent (Polyplus), OptiMEM (Gibco) were used. PEI:DNA ratio was 2 and 0.6 μg DNA per million cells was used. Triple transfections were performed with RHM4-1 Rep Cap, Helper and Gaussia luciferase plasmids. Split Rep and Cap plasmids were used in a ratio of 1:4 (Rep:Cap). In some cases split Rep Cap plasmids and TIR1 or CMV-Tet were used in a ratio of 1:3:1 (Rep:Cap:TIR1 or CMV-Tet). 1.5 mM SAHA was added after the addition of DNA-PEI complexes. In some cases next day Shield1 or TMP or Auxin and/or Doxycycline was added. For Doxycycline treated samples another treatment of Dox was performed 24 hr later than first treatment. Cells harvested at 4,8,24 hr post-treatment and 44 hr or 68 hr or 72 hr post-transfection; centrifuged and washed with cold PBS. These cell pellets were kept at −80 freezer.
Cell pellets were lysed with RIPA buffer (Pierce) including protease and phosphatase inhibitors and EDTA on ice for 30 minutes. Lysates were centrifuged max speed for 15 minutes and supernatant was transferred to a new Eppendorf tube and used for Western. Protein concentrations were measured with BCA kit (Pierce). 30 lag protein per lane loaded for SDS-PAGE gels. These gels were transferred to either PVDF or Nitrocellulose membrane. Membranes were blocked with blocking buffer (Li-Cor) for 30 minutes at room temperature. Anti-AAV Rep clone 303.9 (ARP, cat #03-61069) purified mouse monoclonal antibody was diluted 500 times in either blocking buffer (Li-Cor) or antibody diluent (Li-Cor). Membranes were incubated overnight in cold room either rocking or non-rocking. Next day membranes were washed 3 times 10 minutes each with 1×TBST buffer (Invitrogen). Goat anti-mouse Alexa Flour 680 secondary antibody was diluted 1000 times in either blocking buffer (Li-Cor) or antibody diluent (Li-Cor). Membranes were incubated at room temperature rocking for 45 minutes. […]

[7] = system: ecDHFR degron tagged Rep proteins; remark: listed apart in the source
Experimental: Expi293 cells were seeded 1.4E6 viable cells/mL in Expi293 media the day before transfection. Transfection was performed when the viable cells were between 2E6-3E6 cells/mL. PEI pro transfection reagent (Polyplus), OptiMEM (Gibco) were used. PEI:DNA ratio was 2 and 0.6 μg DNA per million cells was used. Triple transfections were performed with RHM4-1 Rep Cap, Helper and Gaussia luciferase plasmids. Split Rep and Cap plasmids were used in a ratio of 1:4 (Rep:Cap). In some cases split Rep Cap plasmids and TIR1 or CMV-Tet were used in a ratio of 1:3:1 (Rep:Cap:TIR1 or CMV-Tet). 1.5 mM SAHA was added after the addition of DNA-PEI complexes. In some cases next day Shield1 or TMP or Auxin and/or Doxycycline was added. For Doxycycline treated samples another treatment of Dox was performed 24 hr later than first treatment. Cells harvested at 4,8,24 hr post-treatment and 44 hr or 68 hr or 72 hr post-transfection; centrifuged and washed with cold PBS. These cell pellets were kept at −80 freezer. 1 mL of cells harvested 44 hr or 68 hr or 72 hr post-transfection for qPCR.
Frozen harvested cells were thawed and sonicated. 300 μL sonicated cells were treated with Benzonase for 1 hour at 37° C. incubator on a rotator/shaker. Then DNaseI treatment was performed for 15 minutes. Reaction was stopped with stop reagent (0.2% SDS/5 mM EDTA/0.2M NaCl), heated at 95° C. for 10 minutes and centrifuged. […]

[8] = system: C-terminal Auxin Inducible Degron containing Rep; test: AAV titer (qPCR) with Auxin Inducible Degron tagged Rep; format: cell-based; conditions: auxin and TIR1 all present (Sample 4), FIG. 14B
Experimental: as §1, §2

[9] = Rep constructs with C-terminal tagged degron, FIG. 15

T1 sequence (P62942 other isoform, or with tags, fused parts or gaps F37V): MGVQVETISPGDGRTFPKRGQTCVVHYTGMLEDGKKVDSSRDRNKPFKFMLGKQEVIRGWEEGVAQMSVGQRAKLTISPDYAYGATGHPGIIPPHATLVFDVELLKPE

## C[C@H]1c2cccc(O)c2C(=O)C2=C(O)[C@]3(O)C(=O)C(C(N)=O)=C(O)[C@@H](N(C)C)[C@@H]3[C@@H](O)[C@@H]21 [Doxycycline, doxycycline]
[1]; Doxycycline induction, FIG. 16B
  increase of AAV production from the basal levels: ~29 times

## CC[C@H](C(=O)N1CCCC[C@H]1C(=O)O[C@H](CCc1ccc(OC)c(OC)c1)c1cccc(OCCN2CCOCC2)c1)c1cc(OC)c(OC)c(OC)c1 [Shield1]
[2]; Rep with C-terminally linked degron in the presence of both Cap and Shield1, FIG. 6
  rAAV production: significantly increased
[2]; Shield1 addition, Rep-only plasmid C-terminal degron, HEK293, FIG. 4
  rAAV production and transduction of the target cells: rescued
[2]; of the wt Rep/Cap plasmid, Rep-only plasmid C-terminal degron with Shield1, FIG. 4
  transduction efficiency: 15-20%
[3]; N- and C-terminal degron constructs vs untreated controls, FIG. 12C
  AAV titer: increases AAV titer
[3]; [9]
  AAV production at different doses: more effective at 500 nM concentration
[4]; C-degron Rep, 4, 8, 24 hour after Shield1 vs untreated, FIG. 12B
  Small and large Rep expression: higher
[4]; N-degron Rep, 4, 8, 24 hours after Shield1 vs untreated, FIG. 12A
  large Rep expression: increases
[1]; codon-modified Rep and small Rep under TRE3G and degron control, treated with Shield1 and Dox together, FIG. 20B
  AAV titer: higher
[5]; Sample 1 vs Sample 2, FIG. 16A
  small Rep expression: upregulate
[5]; Sample 3 vs Sample 4 (with doxycycline), FIG. 16A
  large Rep expression: upregulate
[5]; Samples 2, 4, 6, 8 vs 1, 3, 5, 7, FIG. 17A
  Large and small Rep expression: increased
[5]; Shield1 added on top of doxycycline, Samples 4 and 8, FIG. 18B
  large Rep expression: increased further

## COc1cc(Cc2cnc(N)nc2N)cc(OC)c1OC [TMP, Trimethoprim]
[6]; C-ecDegron Rep, 5 μM TMP, FIG. 13B
  Small and large Rep expression: more
[6]; C-terminal tagged ecDHFR degron, Samples 7 and 8, FIG. 14A
  Small and large Rep expression: more
[6]; N-ecDegron Rep, 5 μM TMP, 24 hour time point, FIG. 13A
  large Rep expression: higher
[7]; C-terminal ecDHFR degron constructs, FIG. 13C
  AAV titer: increases
[7]; ecDHFR degron tagged Reps, Sample 8 vs Sample 7 (undetectable without TMP), FIG. 14B
  AAV production: can produce AAV

## O=C(O)Cc1c[nH]c2ccccc12 [auxin]
[8]
  AAV production: undetectable

## CC[C@H](C(=O)N1CCCC[C@H]1C(=O)O[C@H](CCc1ccc(OC)c(OC)c1)c1ccccc1OCC(=O)NCCCCCCOc1cccc2c1C(=O)N(C1CCC(=O)NC1=O)C2=O)c1cc(OC)c(OC)c(OC)c1 (some centres unmarked) [dTag13]
[3]; [9]
  basal level of the AAV production: did not decrease
